The results in this text go back to paper PMC6522912, “Evaluation of the published kinase inhibitor set to identify multiple inhibitors of bacterial ATP-dependent mur ligases” (Journal of Enzyme Inhibition and Medicinal Chemistry, 2019).

One assay deals with E. coli MurC (Escherichia coli, UniProt P17952). Put plainly: Malachite green inhibition assay, MurC. The note with it: for remaining activity at 100 µM: 0.25 h; for RA (%) MurC: Table S3, aza stilbene compounds. It counts as biochemical.
The next assay has as its target E. coli MurF (Escherichia coli, UniProt P11880). Put plainly: biochemical. The note with it: for remaining activity at 100 µM: 0.25 h, read-out: RA [%] at 100 µM MurF; for remaining activity at 100 µM / RA [%] at 100 µM MurF: Table S1, PKIS screening; for RA (%) MurF: Table S3, aza stilbene compounds.
The target in a further assay is E. coli MurD (Escherichia coli, UniProt P14900). Put plainly: biochemical. To be noted: for remaining activity at 100 µM: 0.25 h, Table S1, PKIS screening, read-out: RA [%] at 100 µM MurD. In short, it runs like this:
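Reaction 15 min at 37 °C, then phosphate detected with Biomol green at 650 nm. Values are residual activity versus 5% DMSO carrier controls.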

Setting [1] is: Table S1, PKIS screening, read-out: RA [%] at 100 µM MurC.
Setting [2] is: read-out: RA [%] at 100 µM MurC, Table S1, PKIS screening.

Like-named read-outs stand apart in the source and are kept apart here.

E. coli MurC, sequence (P17952 whole entry): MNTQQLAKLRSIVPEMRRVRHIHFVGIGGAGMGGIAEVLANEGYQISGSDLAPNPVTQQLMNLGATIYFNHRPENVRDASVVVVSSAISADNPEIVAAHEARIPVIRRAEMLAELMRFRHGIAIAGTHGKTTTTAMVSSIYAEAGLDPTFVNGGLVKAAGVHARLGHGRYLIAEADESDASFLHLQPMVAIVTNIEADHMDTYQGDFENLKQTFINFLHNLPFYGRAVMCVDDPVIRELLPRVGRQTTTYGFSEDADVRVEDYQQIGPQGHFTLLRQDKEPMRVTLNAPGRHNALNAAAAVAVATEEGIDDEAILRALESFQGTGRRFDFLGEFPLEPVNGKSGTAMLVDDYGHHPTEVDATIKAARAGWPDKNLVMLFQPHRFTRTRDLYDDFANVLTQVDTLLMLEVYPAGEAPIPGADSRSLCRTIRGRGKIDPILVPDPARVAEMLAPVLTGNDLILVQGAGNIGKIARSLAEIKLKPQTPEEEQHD
E. coli MurD, sequence (P14900 whole entry): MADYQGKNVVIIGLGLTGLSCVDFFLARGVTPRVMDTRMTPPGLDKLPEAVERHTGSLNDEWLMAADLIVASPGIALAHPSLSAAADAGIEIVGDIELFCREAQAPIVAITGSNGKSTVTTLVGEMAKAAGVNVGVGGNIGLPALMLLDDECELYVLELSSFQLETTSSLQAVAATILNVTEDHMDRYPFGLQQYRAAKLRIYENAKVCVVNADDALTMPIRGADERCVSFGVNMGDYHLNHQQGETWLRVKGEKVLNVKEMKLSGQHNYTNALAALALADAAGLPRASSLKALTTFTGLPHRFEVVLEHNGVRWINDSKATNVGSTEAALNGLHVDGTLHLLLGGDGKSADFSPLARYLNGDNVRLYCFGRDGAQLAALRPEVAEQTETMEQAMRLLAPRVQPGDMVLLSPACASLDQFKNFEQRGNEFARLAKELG
E. coli MurF, sequence (P11880 whole entry): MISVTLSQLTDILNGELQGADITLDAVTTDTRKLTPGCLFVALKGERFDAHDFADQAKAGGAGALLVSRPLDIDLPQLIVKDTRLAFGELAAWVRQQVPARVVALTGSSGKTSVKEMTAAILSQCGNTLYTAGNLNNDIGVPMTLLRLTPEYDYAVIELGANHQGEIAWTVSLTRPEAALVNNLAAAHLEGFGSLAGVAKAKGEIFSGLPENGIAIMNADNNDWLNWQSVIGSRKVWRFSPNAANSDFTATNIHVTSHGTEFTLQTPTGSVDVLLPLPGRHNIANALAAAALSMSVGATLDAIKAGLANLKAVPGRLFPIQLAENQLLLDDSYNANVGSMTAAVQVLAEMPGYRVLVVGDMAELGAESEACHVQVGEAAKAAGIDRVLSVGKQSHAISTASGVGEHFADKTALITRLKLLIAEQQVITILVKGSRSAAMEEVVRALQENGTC

Turning to `NS(=O)(=O)c1ccc(N/N=C2\C(=O)Nc3ccc(-c4cnco4)cc32)cc1` [GW276655X], the remaining activity at 100 µM turned out to be 84% on E. coli MurC (setting [1]), 22% on E. coli MurF and 73% at E. coli MurD.
In the case of `COc1cc(N2CCN(C(C)C)CC2)ccc1Nc1nc(Nc2ccc(F)cc2C(N)=O)c2cc[nH]c2n1` [GSK1220512A], the remaining activity at 100 µM at E. coli MurC (setting [2]) worked out at 2%; on E. coli MurF, 54%; on E. coli MurD, 48%.
In the case of `O=C1NC(=O)C(c2ccccc2Cl)=C1Nc1cccc(O)c1` [SB-390527], the remaining activity at 100 µM stood at 50% on E. coli MurC (setting [1]), 88% at E. coli MurF and 83% at E. coli MurD.
On the same counts, the results for `C#Cc1cccc(Nc2ncnc3ccc(OCCCCNCCS(C)(=O)=O)cc23)c1` [GW680191X] are 75%, 102% and 93%.
On the same counts, the results for `c1ccc(Nc2ncc(-c3ccccc3)o2)cc1` [GW549390X] are 85%, 93% and 92%.
On the same counts, the results for `O=S(=O)(CCOCc1ccc(-c2ccc3ncnc(Nc4ccc(OCc5cccc(F)c5)c(Cl)c4)c3c2)o1)c1ccccc1` [GW615311X] are 97%, 100% and 91%.
As for `Cl.Oc1cccc(-c2nc(-c3ccccc3)[nH]c2-c2ccncc2)c1` [SB-610251-B], at E. coli MurC (Table S1, PKIS screening), the “RA [%] at 100 µM MurC” value came to 74%. For the same compound, the “RA [%] at 100 µM MurF” value on E. coli MurF was determined as 96%. Besides, the “RA [%] at 100 µM MurD” value on E. coli MurD is on record as 13.
Turning to `CCn1c(-c2nonc2N)nc2cnc(Oc3cccc(NC(=O)c4ccc(OCCN5CCOCC5)cc4)c3)cc21` [GSK269962B], the remaining activity at 100 µM on E. coli MurC (setting [1]) was 57%; on E. coli MurF it was 66%; on E. coli MurD, 58%.
On the same counts, the results for `CC1=C(C(=O)Nc2ccc3[nH]ncc3c2)C(c2ccc(Cl)c(Cl)c2)CC(=O)N1` (stereo not drawn) [GSK299115A] are 78%, 68% and 96%.
Turning to `COc1cc2ncnc(Nc3ccc4c(cnn4Cc4ccccc4)c3)c2cc1OC` [GW282449A], the results for the remaining activity at 100 µM at E. coli MurC (setting [1]), at E. coli MurF and at E. coli MurD were 53%, 56% and 62%, respectively.
In the case of SB-675259-M, the “RA [%] at 100 µM MurC” value on E. coli MurC (Table S1, PKIS screening) is listed as 72%. At E. coli MurF, the “RA [%] at 100 µM MurF” value came out at 100%. Also, the “RA [%] at 100 µM MurD” value on E. coli MurD stood at 80.
Consider `c1ccc(-c2n[nH]cc2-c2ccnc(-c3ccc(OCCn4ccnc4)cc3)c2)nc1` [GW711782X], for which the remaining activity at 100 µM on E. coli MurC (setting [1]) is 100%; on E. coli MurF it was 93%; at E. coli MurD it was 74%.
On the same counts, the results for `Cc1nn(C)c2cc(N(C)c3ccnc(Nc4cccc(S(N)(=O)=O)c4)n3)ccc12` [GW770220A] are 91%, 74% and 86%.
On the same counts, the results for `COc1cccc(-n2ncc3c(N/N=C/c4cccc(F)c4)ncnc32)c1` [GW817394X] are 64%, 46% and 81%.
As to `CNC(=O)c1cncc(C=Cc2ccccc2Cl)c1` [Compound 11], the “RA (%) MurC” value at E. coli MurC came to 68%. Besides, at E. coli MurF, the “RA (%) MurF” value turned out to be 90%. Further, the “RA (%) MurD” value on E. coli MurD is on record as 87%.
As for `Cc1cc(Cl)cc2c1NC(=O)C2=NNc1ccc(S(N)(=O)=O)cc1` [GW279320X], the remaining activity at 100 µM on E. coli MurC (setting [1]) amounted to 76%; at E. coli MurF it was 0%; at E. coli MurD it was 78%.
As for `CCS(=O)(=O)c1ccc(OC)c(Nc2ncc(-c3cccc(C(C)=O)c3)o2)c1` [GW621431X], the remaining activity at 100 µM was determined as 68% on E. coli MurC (setting [1]), 73% at E. coli MurF and 93% on E. coli MurD.
Take `Nc1nc(-c2cccc(Cl)c2)c(-c2ccc3ncccc3n2)s1` [GW780159X]: the remaining activity at 100 µM on E. coli MurC (setting [1]) turned out to be 56%; at E. coli MurF it was 83%; on E. coli MurD, 90%.
For the compound `Fc1ccc(-c2ncn(C3CCNCC3)c2-c2ccnc(Oc3ccc(F)c(F)c3)n2)cc1` [SB-253228], the results for the remaining activity at 100 µM at E. coli MurC (setting [1]), on E. coli MurF and on E. coli MurD were 32%, 70% and 40%, respectively.
In the same order, the values of `COc1cc(Nc2nccc(-c3cnn4ncccc34)n2)cc(OC)c1` [GW801372X] are 94%, 80% and 88%.
On the same counts, the results for `COc1cccc(/C=N/Nc2ncnc3c2cnn3-c2cccc(OC)c2)c1` [GW829874X] are 69%, 85% and 78%.
Take `CCN(CC)Cc1ccc(Nc2nccc(-c3cnn4ncccc34)n2)cc1` [GW780056X]: the remaining activity at 100 µM at E. coli MurC (setting [1]) amounted to 78%; on E. coli MurF, 88%; at E. coli MurD, 78%.
Turning to `CNC(=O)c1cncc(/C=C/c2c(C)cccc2C)c1` [GW445012X], the remaining activity at 100 µM at E. coli MurC (setting [1]) was determined as 85%; on E. coli MurF it was 54%; on E. coli MurD it was 83%.
Turning to `CCNC(=O)O[C@H]1CN[C@H](C#Cc2cc3ncnc(Nc4ccc(OCc5cccc(F)c5)c(Cl)c4)c3s2)C1` [GSK192082A], the remaining activity at 100 µM is 39% at E. coli MurC (setting [1]), 50% on E. coli MurF and 70% on E. coli MurD.
For the compound `Cc1nnc(-c2cccc(-c3ccc(C(=O)NCC4CC4)cc3)c2)o1` [GW734508X], the remaining activity at 100 µM at E. coli MurC (setting [1]) amounted to 89%; at E. coli MurF it was 74%; on E. coli MurD, 100%.
For `CC(C)c1ccc2c(c1)NC(=O)C2=NNc1ccc(S(N)(=O)=O)cc1` [GW300653X], the results for the remaining activity at 100 µM on E. coli MurC (setting [1]), at E. coli MurF and on E. coli MurD were 100%, 75% and 85%, respectively.
On the same counts, the results for `CS(=O)(=O)CCNCc1ccc(-c2ccc3ncnc(Nc4ccc(OCc5ccccc5)c(Cl)c4)c3c2)o1` [GW574783B] are 58%, 79% and 37%.
On the same counts, the results for `CCOc1nccc2c1nc(-c1nonc1N)n2CC` [SB-737198] are 73%, 100% and 100%.
On to `O=C(Nc1n[nH]c2cc(-c3ccc(F)cc3)ccc12)C1CC1` [SB-735467], for which the remaining activity at 100 µM at E. coli MurC (setting [1]) was determined as 51%; at E. coli MurF it was 103%; on E. coli MurD, 75%.
As for `CNC(=O)c1ncccc1Nc1nc(Nc2cc3c(cc2OC)CCCN3C(=O)CN(C)C)nc2[nH]ccc12` [GSK2220400A], the results for the remaining activity at 100 µM on E. coli MurC (setting [2]), on E. coli MurF and on E. coli MurD were 69%, 81% and 84%, respectively.
For `COC(=O)c1sc(-n2cnc3cc(OC)c(OC)cc32)cc1OCc1ccccc1C(F)(F)F` [GSK1030058A], the remaining activity at 100 µM stood at 32% at E. coli MurC (setting [1]), 55% at E. coli MurF and 78% on E. coli MurD.
`Cc1ccc(Nc2ccnc(Nc3cccc(C(N)=O)c3)n2)cc1O` [GW575808A]: the figures for the remaining activity at 100 µM on E. coli MurC (setting [1]), on E. coli MurF and on E. coli MurD were 100%, 100% and 89%, respectively.
Turning to `Nc1nccc(C#Cc2cncnc2Nc2ccc(OCc3cccc(F)c3)c(Cl)c2)n1` [GW799251X], the remaining activity at 100 µM on E. coli MurC (setting [1]) was found to be 33%; on E. coli MurF, 0%; on E. coli MurD, 50%.
In the same order, the values of `Fc1ccc(-c2ncn(CCCN3CCOCC3)c2-c2ccncc2)cc1` [SB-210313] are 100%, 100% and 91%.
For `NS(=O)(=O)c1ccc(N/N=C2\C(=O)Nc3ccc4ncccc4c32)cc1` [GW305178X], the remaining activity at 100 µM on E. coli MurC (setting [1]) worked out at 52%; at E. coli MurF, 56%; on E. coli MurD, 57%.
Take `COc1ccc2ncn(-c3cc(O[C@H](C)c4ccccc4C(F)(F)F)c(C(N)=O)s3)c2c1` [GSK317315A]: the results for the remaining activity at 100 µM on E. coli MurC (setting [1]), at E. coli MurF and at E. coli MurD were 53%, 51% and 47%, respectively.
As to `COc1cc(N2CCN(C(C)C)CC2)ccc1Nc1nc(Nc2cccc(F)c2C(=O)O)c2cc[nH]c2n1` [GSK1819799A], the remaining activity at 100 µM came to 0% at E. coli MurC (setting [1]), 39% on E. coli MurF and 37% on E. coli MurD.
In the same order, the values of `CCc1cccc(NC(=O)Nc2ccc(Oc3ccc4nc(NC(=O)OC)[nH]c4c3)cc2)c1` [GW673715X] are 79%, 68% and 83%.
Consider `Cc1ccc2c(c1)C(=NNc1ccc(S(N)(=O)=O)cc1)C(=O)N2` [GW275944X], for which the figures for the remaining activity at 100 µM at E. coli MurC (setting [1]), on E. coli MurF and at E. coli MurD were 92%, 83% and 87%, respectively.
Regarding `CNC(=O)Oc1cc(C)c(C=Cc2cncc(C(=O)NC)c2)c(C)c1` [Compound 13], at E. coli MurC, the “RA (%) MurC” value was 68%. Also, the “RA (%) MurF” value at E. coli MurF was determined as 87%. For the same compound, at E. coli MurD, the “RA (%) MurD” value is 69%.
On to `COC(=O)Nc1nc2ccc(Oc3ccc(NC(=O)Nc4cccc(Br)c4)cc3)cc2[nH]1` [GW694234A], for which the values for the remaining activity at 100 µM at E. coli MurC (setting [1]), at E. coli MurF and at E. coli MurD were 71%, 72% and 86%, respectively.
